According to PubChem BioAssay (NCI):
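How tested: cells in 96-well plates exposed to compound for 48 hours at five concentrations. Abbreviation: GI50, concentration required for 50% inhibition of growth. At the TGI there is no net growth.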

How the values were obtained:
Assay in all cases: DTP human tumour cell line panel, 48 h
SF-268 CNS = system: SF-268 CNS
SK-MEL-5 melanoma = system: SK-MEL-5 melanoma
SF-539 CNS = system: SF-539 CNS
TK-10 renal = system: TK-10 renal
SK-MEL-28 melanoma = system: SK-MEL-28 melanoma
SR leukemia = system: SR leukemia
CAKI-1 renal = system: CAKI-1 renal
MOLT-4 leukemia = system: MOLT-4 leukemia
MALME-3M melanoma = system: MALME-3M melanoma
NCI/ADR-RES ovarian = system: NCI/ADR-RES ovarian

Compound | TGI (SF-268 CNS) | TGI (SK-MEL-5 melanoma) | TGI (SF-539 CNS) | TGI (TK-10 renal) | TGI (SK-MEL-28 melanoma) | TGI (SR leukemia) | TGI (CAKI-1 renal) | TGI (MOLT-4 leukemia) | TGI (MALME-3M melanoma) | TGI (NCI/ADR-RES ovarian) | GI50 (SF-268 CNS) | GI50 (SK-MEL-5 melanoma) | GI50 (SF-539 CNS) | GI50 (TK-10 renal) | GI50 (SR leukemia)
Cc1c(C(=O)CSc2nc3ccccc3c(=O)n2-c2ccccc2)c(=O)n(-c2ccccc2)n1C | > 100 µM | > 100 µM | > 100 µM | > 100 µM | > 100 µM | > 100 µM | 0.729 µM | > 100 µM | > 100 µM | – | – | – | – | – | –
CCOC(=N)n1c(=O)n(C2=NCCN2)c2ccccc21 | > 100 µM | – | > 100 µM | > 100 µM | > 100 µM | > 100 µM | > 100 µM | > 100 µM | > 100 µM | > 100 µM | – | – | – | – | –
COCOc1ccc(Cn2c(=O)n(C)c(=O)c3c2ncn3C)cc1[N+](=O)[O-] | > 100 µM | – | > 100 µM | > 100 µM | > 100 µM | > 100 µM | – | > 100 µM | > 100 µM | – | – | – | – | – | –
O=C(NC(Cc1ccc(I)cc1)C(=O)O)c1ccc(I)cc1 (stereo unspecified) | > 100 µM | > 100 µM | > 100 µM | – | > 100 µM | – | > 100 µM | > 100 µM | > 100 µM | > 100 µM | – | – | – | – | –
COc1cc(C2CC(C)(Nc3ccccc3)Oc3cc4c(cc32)OCO4)cc(OC)c1OC (stereo unspecified) | > 100 µM | 8.01 µM | 0.477 µM | > 100 µM | > 100 µM | > 60.7 µM | > 71.8 µM | > 31.6 µM | > 100 µM | – | – | – | – | – | –
COc1cc([N+](=O)[O-])c(OC)cc1-c1nc2sc(Cl)cn2c1/C=N/Nc1ccccn1 | > 50 µM | 36 µM | 16.8 µM | > 50 µM | – | 12.1 µM | – | – | – | – | 19.2 µM | 12.8 µM | 9.7 µM | 15.6 µM | 0.0877 µM
CC(=O)N/N=C1\NC(=O)C[C@H]2[C@@H]3CC=C4C[C@@H](OC(C)=O)CC[C@]4(C)[C@H]3CC[C@]12C | > 100 µM | > 100 µM | 25.9 µM | 41.7 µM | 33 µM | – | > 100 µM | > 100 µM | > 100 µM | > 100 µM | – | – | – | – | –
CN(C)Cc1cc(C(=O)/C=C/c2ccc(O)cc2)cc(CN(C)C)c1O | > 100 µM | 38.5 µM | > 100 µM | > 100 µM | > 100 µM | 69.5 µM | > 100 µM | > 100 µM | – | > 100 µM | – | – | – | – | –
CC(=O)OCC1OC(n2cc([N+](=O)[O-])c(=O)[nH]c2=O)C(OC(C)=O)C(OC(C)=O)C1OC(C)=O (stereo unspecified) | > 100 µM | > 100 µM | – | > 100 µM | > 100 µM | > 100 µM | > 100 µM | > 100 µM | > 100 µM | – | – | – | – | – | –
CC(C(=O)n1nnc2ccccc21)N(c1ccccc1)c1ccccc1 (stereo unspecified) | > 100 µM | > 100 µM | > 100 µM | > 100 µM | > 100 µM | > 100 µM | > 100 µM | > 100 µM | > 100 µM | – | – | – | – | – | –
O=C1c2cc3c(cc2CC1Br)CCC3 (stereo unspecified) | 28.5 µM | 3.36 µM | 4.2 µM | 8.77 µM | 8.56 µM | – | 3.23 µM | 4.56 µM | 2.82 µM | 19.2 µM | – | – | – | – | –
